From patent US6387849B1, “Herbicidal hydroximic acid derivatives” (BASF Aktiengesellschaft, priority 1997, dated 2002)

melting point: 122 to 124 °C
SMILES: CO/N=C(\OC)c1cc(-n2c(=O)cc(C(F)(F)F)n(C)c2=O)c(F)cc1Cl [Compound 4.01, 3-[2-fluoro-4-chloro-5-methoxyimino-(methoxy)methylphenyl]-2,4-dioxo-1-methyl-6-trifluoromethyl-1,2,3,4-tetrahydropyrimidine]
